From ChEMBL document CHEMBL3988442, “University of Dundee, Small-Polar-MMV Screening Library” (2021) come the findings set out here.

The test system of experiment [1] is Plasmodium falciparum. In words: Calibr Malaria Delayed Death Assay SOP. The settings on record: for IC50: Plasmodium falciparum. In kind it is functional, organism-based.
A short description of experiment [2]: microbe, parasite or virus in culture. As to conditions: Mycobacterium tuberculosis, 96 h, read-out: pIC50 (converted).
Experiment [3] can be described thus: microbe, parasite or virus in culture. The settings on record: Mycobacterium tuberculosis, 72 h, read-out: pIC50 (converted).

In the case of `CCNC(=O)N(C)C1CCN(Cc2ncc(C)c(OC)c2C)CC1`, in experiment [1], the pIC50 (commonly the IC50 on a negative log10 scale, so that one unit is a factor of ten) came out at 5.844 and the IC50 is 1.59 µM.

In the case of `CN1CCC2(CCCN(c3nccc(C(F)(F)F)n3)C2)CC1.O=C(O)C(F)(F)F`, in experiment [1], the pIC50 is 6.246 and the IC50 was 0.771 µM.

In experiment [1], `COc1cccc(CN2CC(=O)N(c3ccccc3C)CC2C)c1OC` (centres undefined) had a pIC50 of 5.928 and an IC50 of 1.42 µM.

In experiment [1], `Fc1cnc(N2CCCC3(CCN(Cc4ccoc4)C3)C2)nc1.O=C(O)C(F)(F)F.O=C(O)C(F)(F)F` (centres undefined) gave a pIC50 of 5.93 and an IC50 of 1.21 µM.

For the molecule `CN1CCC(N(Cc2ccco2)S(=O)(=O)c2ccc(Cl)cc2)CC1`, in experiment [1], the negative logarithm of the IC50 (pIC50) stood at 6.409 and the IC50 is 0.56 µM.

In experiment [1], `Fc1ccc(Nc2ccc(C3CCN(Cc4ncc[nH]4)CC3)nc2)nc1` gave a pIC50 of 6.119 and an IC50 of 0.987 µM.

Take `Fc1cnc(N2CCCC3(CCN(Cc4ccsc4)C3)C2)nc1.O=C(O)C(F)(F)F.O=C(O)C(F)(F)F` (centres undefined): in experiment [1], the negative-log IC50 (pIC50) is on record as 6.217 and the IC50 is 0.664 µM.

In experiment [1], `CCN1CCN(C[C@@H]2CN(c3ncc(Cl)cc3F)C[C@@H]2CO)CC1` gave a pIC50 of 6.156 and an IC50 of 0.651 µM.

As to `OCCN1CCC(CNCc2ccc(Br)cc2)CC1`, in experiment [1], the negative logarithm of the IC50 (pIC50) was 6.334 and the IC50 is 0.364 µM.

In experiment [1], `CC(O)CN1CCC(CNCc2cccc(C(F)(F)F)c2)CC1` (centres undefined) had a pIC50 of 6.332 and an IC50 of 0.751 µM.

Regarding `CC1(C)CC(N(Cc2ccccc2)Cc2cccnc2)CC(C)(C)N1.O=C(O)CC(O)(CC(=O)O)C(=O)O`, in experiment [1], the pIC50 stood at 5.927 and the IC50 was 0.602 µM.

For the molecule `CN1CCCCC1c1ncc2c(n1)CCN(Cc1ccc(F)cc1)C2` (centres undefined), in experiment [1], the pIC50 was found to be 5.899 and the IC50 was 1.28 µM.

Consider `Cc1ccc(C(C)NCCc2nccn2Cc2ccccc2)o1` (centres undefined), for which, in experiment [1], the pIC50 is listed as 5.88 and the IC50 was 1.26 µM.

Take `Cc1ccccc1CNCc1cc(Cl)ccc1O`: in experiment [1], the pIC50 stood at 6.395 and the IC50 was 0.601 µM.

In experiment [1], `CC(C)N1CCC(NCc2cccnc2N(C)Cc2ccccc2)CC1` showed a pIC50 of 6.416 and an IC50 of 0.447 µM.

In experiment [1], `CC(C)C(CNCc1cccc2c1OCO2)N1CCOCC1` (centres undefined) gave a pIC50 of 6.558 and an IC50 of 0.429 µM.

For the molecule `Cc1ccccc1CNCC(O)c1ccc(OC(C)C)cc1` (centres undefined), in experiment [1], the negative logarithm of the IC50 (pIC50) is recorded as 6.206 and the IC50 was 0.637 µM.

In experiment [1], `COCCn1ccnc1CN(Cc1ccccn1)Cc1sccc1C` gave a negative-log IC50 (pIC50) of 6.065 and an IC50 of 0.65 µM.

With `Cc1oc(-c2cc(F)cc(F)c2)nc1CN1C[C@@H](C)NC[C@@H]1C`, in experiment [1], the pIC50 is recorded as 5.947 and the IC50 is 0.719 µM.

In experiment [1], `Cc1ccc(CNC(C)c2cc(F)ccc2N2CCN(C)CC2)o1` (centres undefined) gave a pIC50 of 6.454 and an IC50 of 0.329 µM.

In experiment [1], `Fc1ccccc1C1(CNC2CCOC3(CCOCC3)C2)CCCC1` (centres undefined) gave a pIC50 of 6.12 and an IC50 of 0.796 µM.

In experiment [1], `CC(NCC1CCN(CCO)CC1)c1ccc(OC(F)(F)F)cc1` (centres undefined) gave a pIC50 of 6.465 and an IC50 of 0.343 µM.

In experiment [1], `O=C(O)C(F)(F)F.O=C(O)C(F)(F)F.O=C(O)C(F)(F)F.c1ccc(CN2CCCC3(CCN(Cc4cccs4)C3)C2)nc1` (centres undefined) had a pIC50 of 6.204 and an IC50 of 0.735 µM.

`CN1CCN(S(=O)(=O)c2ccc(Cl)c(Cl)c2)c2cnccc21`: in experiment [1], the pIC50 amounted to 6.238 and the IC50 was 0.557 µM.

As for `CN(C)S(=O)(=O)N1CCC(Oc2ccccc2Cl)CC1`, the figures for the IC50 in experiment [2] and in experiment [3] were 232 µM and 343 µM, respectively.

Turning to `COc1cc(C(=O)Nc2nc(C)no2)ccc1C`, the IC50 in experiment [2] and in experiment [3] was greater than 50.1 µM each time.

As to `CNC(=O)NC(=O)CCN1CCN(S(C)(=O)=O)CC1`, the IC50 in experiment [2] is greater than 501 µM; in experiment [3] it was 245 µM.

Regarding `NC(=O)CN(Cc1ccc(Br)cc1)C(=O)c1ccco1`, the IC50 in experiment [2] is greater than 501 µM; in experiment [3] it was 427 µM.

For `CC(C)(C#N)C(=O)NCCNc1cccc(Br)c1`, the IC50 in experiment [2] was 206 µM; in experiment [3], 267 µM.

Regarding `Cc1cn(Cc2nc(CC(C)C)nn2-c2ccccn2)c(=O)[nH]c1=O`, the IC50 in experiment [2] and in experiment [3] was greater than 50.1 µM throughout.

For `Cc1ccc(NCc2ncc[nH]2)c(F)c1`, the IC50 in experiment [2] is greater than 501 µM; in experiment [3], 216 µM.

On to `CN(CCc1ccccc1)Cc1nc(Cc2cccc(F)c2)no1`, for which the values for the IC50 in experiment [2] and in experiment [3] were 33.8 µM and 2.69 µM, respectively.

For the molecule `CC(C)Oc1cccc(-c2cnn(CCC(N)=O)c2)c1`, the IC50 is 382 µM in experiment [2] and 264 µM in experiment [3].

As to `CCOc1nn(CC)cc1-c1nnc(SCc2ccccn2)n1C`, the IC50 in experiment [2] is greater than 50.1 µM; in experiment [3], 25.4 µM.

As for `Cn1cccc1C(=O)N1CCN2C[C@H](Oc3cccnc3)C[C@H]2C1`, the IC50 in experiment [2] and in experiment [3] was greater than 50.1 µM in each case.

On to `NC(=O)C1CCN(CCOc2ccc(Br)cc2)C1` (centres undefined), for which the IC50 in experiment [2] and in experiment [3] was greater than 501 µM throughout.

Consider `Cc1nc(-c2ccc(NCCc3ccc(O)cc3)nc2)[nH]c(=O)c1C`, for which the IC50 in experiment [2] was 32.1 µM; in experiment [3] it was 42.1 µM.

Take `CN(CCCN)c1ccccc1F`: the IC50 in experiment [2] is 129 µM; in experiment [3], 86.1 µM.

Take `COc1ccc(C2SCC(=O)N2c2ncc(C)s2)cc1` (centres undefined): the IC50 was 30.1 µM in experiment [2] and 5.8 µM in experiment [3].

Take `COc1coc(CN2CCCC(CCc3ccccc3F)C2)cc1=O` (centres undefined): the IC50 in experiment [2] was 13.3 µM; in experiment [3], 47.3 µM.

With `CC(NCc1cccc2c1OCCO2)c1ccncc1` (centres undefined), the IC50 in experiment [2] was 153 µM; in experiment [3], 99.1 µM.

On to `CCc1noc(CNc2cc3c(cc2Cl)OCCO3)n1`, for which the IC50 in experiment [2] is 8.97 µM; in experiment [3], 26.8 µM.

Regarding `COCCN(Cc1ccoc1)S(=O)(=O)c1ccc(F)c(Cl)c1`, the IC50 in experiment [2] and in experiment [3] was greater than 50.1 µM throughout.

In the case of `CN(C)c1ccc(C(=O)N2CCCC2c2cnn(C)c2)nn1` (centres undefined), the IC50 in experiment [2] and in experiment [3] was greater than 50.1 µM in each case.

In the case of `O=C(Cn1ccc(C(F)(F)F)n1)Nc1ccccn1`, the IC50 in experiment [2] is greater than 501 µM; in experiment [3], 224 µM.

Take `NCc1ccncc1OCc1ccccc1`: the IC50 was greater than 501 µM in experiment [2] and 134 µM in experiment [3].

Regarding `Cc1cnc(N2CCCC(c3ccccc3)C2)nc1-c1ncnn1C` (centres undefined), the IC50 in experiment [2] and in experiment [3] was greater than 50.1 µM throughout.

`COC(=O)N1CC(NC(=O)c2cc(C(C)=O)c[nH]2)C1`: the IC50 in experiment [2] and in experiment [3] was greater than 501 µM throughout.

`CN1N=C(C(=O)NCc2csc(Br)c2)CCC1=O`: the IC50 is 51 µM in experiment [2] and 147 µM in experiment [3].

As to `Cn1ccc(CNC(=O)NCC2CC2)c1`, the IC50 in experiment [2] and in experiment [3] was greater than 501 µM each time.

Regarding `CCOC(C)c1nc(Cn2cccn2)cs1` (centres undefined), the IC50 in experiment [2] and in experiment [3] was greater than 50.1 µM in each case.

On to `CC(C)C1CN(C(=O)c2ccccc2)CCS1` (centres undefined), for which the results for the IC50 in experiment [2] and in experiment [3] were 12.6 µM and 8.62 µM, respectively.

With `Cc1ccc2c(c1)nc(CN)n2C`, the IC50 in experiment [2] is 348 µM; in experiment [3] it was 231 µM.

With `O=C(CSc1cnn[nH]1)N1CCc2ccccc2C1`, the IC50 in experiment [2] and in experiment [3] was greater than 501 µM throughout.

For the molecule `O=C(CCN1CCCC1)N1CCc2ccccc21`, the IC50 was greater than 501 µM in experiment [2] and 391 µM in experiment [3].

With `Cc1nn(C)c2nc(NCCSc3ncn[nH]3)sc12`, the IC50 in experiment [2] and in experiment [3] was greater than 501 µM throughout.

With `Cc1ccc(Cl)c(NC(=O)NC2(C)CCOC2)c1` (centres undefined), the IC50 in experiment [2] and in experiment [3] was greater than 50.1 µM in each case.

For `CCCOC(=O)C(C)NC(=O)c1cccs1` (centres undefined), the IC50 in experiment [2] is 287 µM; in experiment [3] it was 249 µM.

`O=C(CC1Sc2ccc(Cl)cc2NC1=O)OCCO` (centres undefined): the IC50 in experiment [2] was 286 µM; in experiment [3] it was 222 µM.

`CN(C)c1cc2c(nn1)CCN(C(=O)c1cc3ccccc3[nH]c1=O)C2`: the IC50 in experiment [2] and in experiment [3] was greater than 50.1 µM throughout.

Turning to `CN(C)C(=O)CSCC(=O)NCc1ccc(Cl)cc1`, the IC50 was greater than 501 µM in experiment [2] and 86.8 µM in experiment [3].

As to `CC(C)CCNC(=O)Cn1c(=O)oc2ccccc21`, the results for the IC50 in experiment [2] and in experiment [3] were 274 µM and 401 µM, respectively.

Consider `NCC1CN(Cc2c(Cl)cncc2Cl)CCO1` (centres undefined), for which the values for the IC50 in experiment [2] and in experiment [3] were greater than 501 µM and 70.8 µM, respectively.

`COCCN(Cc1ccsc1)C(=O)CC1CCNC1` (centres undefined): the IC50 is 80.1 µM in experiment [2] and 187 µM in experiment [3].

For the molecule `c1nsnc1-c1nc(C2CCCO2)no1` (centres undefined), the IC50 was greater than 501 µM in experiment [2] and 118 µM in experiment [3].

With `CN(CCOc1ccc(Cl)cc1)S(C)(=O)=O`, the IC50 is 178 µM in experiment [2] and 142 µM in experiment [3].

On to `COc1ccc([C@H]2C[C@H](N)C2)cc1F`, for which the IC50 in experiment [2] was 60.7 µM; in experiment [3], 95 µM.

Regarding `CC(NC(=O)c1ccc(Cl)c(I)c1)C(=O)N(C)C` (centres undefined), the IC50 in experiment [2] and in experiment [3] was greater than 501 µM each time.

For `CCC(CO)NCc1ccc(-c2ccc(F)c(Cl)c2)o1` (centres undefined), the IC50 was 13.2 µM in experiment [2] and 35.4 µM in experiment [3].

Turning to `C=C(C)COc1ccc(C(=O)NCC[C@@H](C)CO)cc1`, the results for the IC50 in experiment [2] and in experiment [3] were 283 µM and 440 µM, respectively.

As to `Cc1nsc(C(=O)NCCc2ccc(F)cc2)n1`, the values for the IC50 in experiment [2] and in experiment [3] were 12.5 µM and 1.84 µM, respectively.

Take `CC(C)c1cc(CN2CCNCC2)no1`: the IC50 was greater than 50.1 µM in experiment [2] and 32.6 µM in experiment [3].

Regarding `CNS(=O)(=O)c1ccc(C(=O)NCc2ccccc2)o1`, the IC50 in experiment [2] was greater than 501 µM; in experiment [3], 151 µM.

Turning to `CS(=O)(=O)CCC(=O)N1C[C@@H]2CC[C@H](C1)N(Cc1ccccc1)C2=O`, the IC50 in experiment [2] and in experiment [3] was greater than 50.1 µM in each case.

As to `NCc1noc(-c2ccc(Cl)cc2F)n1`, the IC50 in experiment [2] was 242 µM; in experiment [3] it was 277 µM.

For `CC(=O)NCC(=O)N1C[C@@H]2CC[C@H](Oc3ccccc3Cl)[C@@H]2C1`, the IC50 in experiment [2] and in experiment [3] was greater than 50.1 µM throughout.

`COc1cccc(CN(C)C(=O)c2occc2C)n1`: the IC50 is 279 µM in experiment [2] and 188 µM in experiment [3].
